Assay results published in publication PMC11106742, “Computational Design of Cyclic Peptide Inhibitors of a Bacterial Membrane Lipoprotein Peptidase” (ACS Chemical Biology, 2024).
Values after ≈ are worked out from the molar mass of the structure shown. Bridge positions count the residues as written; N and C are the ends. Square brackets hold non-standard residues; d marks the D form. Peptide text beside a SMILES is read from it. * marks the point of attachment. aIle = CC[C@@H](C)[C@H](N)C(=O)O; NMeL = CN[C@@H](CC(C)C)C(=O)O; dOrn = NCCC[C@@H](N)C(=O)O; dDab = NCC[C@@H](N)C(=O)O; Heptanoyl = CCCCCCC(=O)*; Octanoyl = CCCCCCCC(=O)*; Orn = NCCC[C@H](N)C(=O)O; Dab = NCC[C@H](N)C(=O)O; Hexanoyl = CCCCCC(=O)*; Pentanoyl = CCCCC(=O)*; Butyryl = CCCC(=O)*

Experiments:
PaLspA = molecular target: T1, PaLspA (Pseudomonas aeruginosa, UniProt Q9HVM5); experiment: Enzyme inhibition assay of rationally designed analogues with PaLspA; type: biochemical; conditions: peptide incubated with PaLspA
T1 construct: made in house
T1 sequence (Q9HVM5 1-169): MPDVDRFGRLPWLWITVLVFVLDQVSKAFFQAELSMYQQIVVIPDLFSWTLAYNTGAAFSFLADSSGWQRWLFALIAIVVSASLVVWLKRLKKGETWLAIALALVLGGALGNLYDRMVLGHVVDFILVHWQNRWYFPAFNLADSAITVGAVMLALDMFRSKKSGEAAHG
Procedure: Additionally, C3 – C5 (peptides S5 – S7) and C7-Gbm(NLys) (peptide S9) amide analogues were submitted for enzyme inhibition assays to determine if these cyclic amide isosteres could still inhibit the target enzyme, LspA. Each peptide was incubated with PaLspA and the observed reduction in enzyme activity reported. […]
found for peptides S5 and S9 (C3 and C7-Gbm(NLys). […]
Four linear globomycin analogues were synthesized to determine the necessity of the cyclic core.
The pentapeptide core of NMeLeu-Ile-Ser-Thr-Gly-OH was synthesized as both the natural allo-version and the cheaper non-allo version in which native residues allo-L-isoleucine and allo-L-threonine were replaced by their cheaper non-allo derivatives. Each linear pentapeptide was synthesized in both its acylated, octyl-derivative and non-acylated form and submitted for analysis of its PaLspA inhibitory activity. No PaLspA inhibition was observed, confirming the importance of globomycin’s cyclic core for antimicrobial activity.

E. coli = type: cell-based
Source text: Initially, a library of six lipid amide analogues was synthesized via cyclization between the side-chain epsilon -NH2 of an N-terminal L-lysine residue and the C-terminus of an L-serine residue.
Each analogue was acylated with a simple linear lipid, ranging from C3 to C8 in length (Figure S1). To further probe the potential of the amide isostere, five additional analogues were synthesized in which the D- or L-stereoisomer of cationic amino acids diaminobutyric acid (Dab), ornithine (Orn), or Lys were used as the N-terminal cyclization partner. Each analogue was acylated with an octanoyl tail and the subsequent effects of ring size and/or stereochemistry, as well as lipid length, determined by assessing antimicrobial activity against E. coli. Peptides were also screened against S. aureus.
Unfortunately, each analogue was unable to […]

MIC (E. coli) [µg/mL] | Structure (SMILES) | reduction in PaLspA enzyme activity (in words) (PaLspA) | antimicrobial activity (in words) (E. coli; against Gram-negative bacteria)
> 200 | CCCCCC(=O)N[C@H]1CCCCNC(=O)[C@H](CO)NC(=O)[C@H](CO)NC(=O)[C@H]([C@H](C)CC)NC(=O)[C@H](CC(C)C)N(C)C1=O [S8, C6-Globomycin(N-Lys)] (Hexanoyl-K[NMeL][aIle]SS; lactam 1-C) |  | 
> 200 | CCCCCCCC(=O)N[C@H]1CCCCNC(=O)[C@H](CO)NC(=O)[C@H](CO)NC(=O)[C@H]([C@H](C)CC)NC(=O)[C@H](CC(C)C)N(C)C1=O [S10, C8-Globomycin(N-Lys)] (Octanoyl-K[NMeL][aIle]SS; lactam 1-C) |  | 
> 200 | CCCCCCCC(=O)N[C@H]1CCCNC(=O)[C@H](CO)NC(=O)[C@H](CO)NC(=O)[C@H]([C@H](C)CC)NC(=O)[C@H](CC(C)C)N(C)C1=O [S11, C8-Globomycin(N-Orn)] (Octanoyl-[Orn][NMeL][aIle]SS; lactam 1-C) |  | 
> 200 | CCCCCCCC(=O)N[C@H]1CCNC(=O)[C@H](CO)NC(=O)[C@H](CO)NC(=O)[C@H]([C@H](C)CC)NC(=O)[C@H](CC(C)C)N(C)C1=O [S12, C8-Globomycin(N-Dab)] (Octanoyl-[Dab][NMeL][aIle]SS; lactam 1-C) |  | 
> 200 | CCCCCCCC(=O)N[C@@H]1CCCCNC(=O)[C@H](CO)NC(=O)[C@H](CO)NC(=O)[C@H]([C@H](C)CC)NC(=O)[C@H](CC(C)C)N(C)C1=O [S14, C8-Globomycin(N-D-Lys)] (Octanoyl-[dK][NMeL][aIle]SS; lactam 1-C) |  | 
> 200 | CCCCCCCC(=O)N[C@@H]1CCCNC(=O)[C@H](CO)NC(=O)[C@H](CO)NC(=O)[C@H]([C@H](C)CC)NC(=O)[C@H](CC(C)C)N(C)C1=O [S15, C8-Globomycin(N-D-Orn)] (Octanoyl-[dOrn][NMeL][aIle]SS; lactam 1-C) |  | 
> 200 | CCCCCCCC(=O)N[C@@H]1CCNC(=O)[C@H](CO)NC(=O)[C@H](CO)NC(=O)[C@H]([C@H](C)CC)NC(=O)[C@H](CC(C)C)N(C)C1=O [S16, C8-Globomycin(N-D-Dab)] (Octanoyl-[dDab][NMeL][aIle]SS; lactam 1-C) |  | 

Structure (SMILES) | MIC (E. coli) [µg/mL] | reduction in PaLspA enzyme activity (in words) (PaLspA) | antimicrobial activity (in words) (E. coli; against Gram-negative bacteria)
CCCC(=O)N[C@H]1CCCCNC(=O)[C@H](CO)NC(=O)[C@H](CO)NC(=O)[C@H]([C@H](C)CC)NC(=O)[C@H](CC(C)C)N(C)C1=O [S6, C4-Globomycin(N-Lys)] (Butyryl-K[NMeL][aIle]SS; lactam 1-C) | > 200 | no reduction in activity | 
CCCCC(=O)N[C@H]1CCCCNC(=O)[C@H](CO)NC(=O)[C@H](CO)NC(=O)[C@H]([C@H](C)CC)NC(=O)[C@H](CC(C)C)N(C)C1=O [S7, C5-Globomycin(N-Lys)] (Pentanoyl-K[NMeL][aIle]SS; lactam 1-C) | > 200 | no reduction in activity | 
CCCCCCC(=O)N[C@H]1CCCCNC(=O)[C@H](CO)NC(=O)[C@H](CO)NC(=O)[C@H]([C@H](C)CC)NC(=O)[C@H](CC(C)C)N(C)C1=O [S9, C7-Globomycin(N-Lys)] (Heptanoyl-K[NMeL][aIle]SS; lactam 1-C) | 100 (≈ 153 µM) | moderate decrease in enzyme activity | 
CCCCCCCC(=O)N[C@H]1CC=CCNC(=O)[C@H](CO)NC(=O)[C@H](CO)NC(=O)[C@H]([C@H](C)CC)NC(=O)[C@H](CC(C)C)N(C)C1=O [S13, C8-Globomycin(RCM)] | > 200 |  | void of antimicrobial activity
